The source of these data is patent US8592442B2, “Nilotinib HCl crystalline forms” (Teva Pharmaceutical Industries Ltd., priority 2008, dated 2013).

Counter-ions that a name gives are not always drawn.

For data set [1] the following is noted: as described in WO '870; cited from earlier work.
Data set [2] is described as follows: Polymorphic conversion when heated. In kind it is physicochemical.
The conditions of data set [3]: as described in WO '870; cited from earlier work. The source holds these as a separate data set.

With `Cc1cn(-c2cc(NC(=O)c3ccc(C)c(Nc4nccc(-c5cccnc5)n4)c3)cc(C(F)(F)F)c2)cn1` [Nilotinib HCl form B, Nilotinib HCl], in data set [1], the “solubility in IPA” value was “not soluble in IPA”.

As to `Cc1cn(-c2cc(NC(=O)c3ccc(C)c(Nc4nccc(-c5cccnc5)n4)c3)cc(C(F)(F)F)c2)cn1` [Nilotinib HCl crystalline form T17, Nilotinib HCl], in data set [2], the “conversion to other forms when heated” value is on record as “does not convert to other forms when heated”.

For the molecule `Cc1cn(-c2cc(NC(=O)c3ccc(C)c(Nc4nccc(-c5cccnc5)n4)c3)cc(C(F)(F)F)c2)cn1` [Nilotinib HCl form A, Nilotinib HCl], the “conversion to other polymorphs when heated” value in data set [3] is listed as “converted to other polymorphs”.
